According to ChEMBL document CHEMBL1201862, “PubChem BioAssay data set” (2004):
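Briefly, cells in 96-well plates were exposed to five compound concentrations for 48 h, and endpoints were estimated by linear interpolation. At the GI50, growth is halved.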 The source made the active and inactive calls. No stated cut-off is given here; in the data, active = GI50 up to about 1.1 µM and inactive = higher. Square brackets hold non-standard residues; d marks the D form. Peptide text beside a SMILES is read from it. * marks the point of attachment. X26 = COC1=CC(=O)N(C(=O)[C@@H](O*)C(C)C)[C@H]1Cc1ccccc1; NMeL = CN[C@@H](CC(C)C)C(=O)O; Hexanoyl = CCCCCC(=O)*

Key:
Assay in all cases: NCI tumour cell line growth inhibition, 48 h
SF-268 = tested on: SF-268
HL-60 = tested on: HL-60
T47D = tested on: T47D
OVCAR-3 = tested on: OVCAR-3
KM12 = tested on: KM12
SNB-19 = tested on: SNB-19
MDA-MB-231 = tested on: MDA-MB-231
SK-OV-3 = tested on: SK-OV-3
BT-549 = tested on: BT-549
MCF7 = tested on: MCF7
NCI-H226 = tested on: NCI-H226
A498 = tested on: A498
A549 = tested on: A549
LOX IMVI = tested on: LOX IMVI
SW-620 = tested on: SW-620
HT-29 = tested on: HT-29
SNB-75 = tested on: SNB-75
OVCAR-8 = tested on: OVCAR-8
UO-31 = tested on: UO-31

Compound | GI50 (SF-268) | GI50 (HL-60) | GI50 (T47D) | GI50 (OVCAR-3) | GI50 (KM12) | GI50 (SNB-19) | GI50 (MDA-MB-231) | GI50 (SK-OV-3) | GI50 (BT-549) | GI50 (MCF7) | GI50 (NCI-H226) | GI50 (A498) | GI50 (A549) | GI50 (LOX IMVI) | GI50 (SW-620) | GI50 (HT-29) | GI50 (SNB-75) | GI50 (OVCAR-8) | GI50 (UO-31)
O=C1C(Cl)=CC2(C=C1Cl)CCNC1=C2C(=O)c2nc[nH]c2C1=O | 54.6 µM (inactive) | 24.4 µM (inactive) | 99.8 µM (inactive) | 32.3 µM (inactive) | 43.4 µM (inactive) | 32.3 µM (inactive) | 35.6 µM (inactive) | > 100 µM (inactive) | 26.3 µM (inactive) | 22.3 µM (inactive) | 75.2 µM (inactive) | 36.6 µM (inactive) | > 100 µM (inactive) | 20 µM (inactive) | 26.9 µM (inactive) | 29.6 µM (inactive) | 97.5 µM (inactive) | 32.9 µM (inactive) | > 100 µM (inactive)
N=C(N)SCc1cc(Cl)cc(Cl)c1O | 21.8 µM (inactive) | 3.21 µM (inactive) | 20.9 µM (inactive) | 17.2 µM (inactive) | 18.4 µM (inactive) | 18.2 µM (inactive) | 15.1 µM (inactive) | 36.1 µM (inactive) | 18.7 µM (inactive) | 25.2 µM (inactive) | 20.3 µM (inactive) | 22.3 µM (inactive) | 20.7 µM (inactive) | 18.5 µM (inactive) | 20.7 µM (inactive) | 16 µM (inactive) | – | 18.3 µM (inactive) | 15.5 µM (inactive)
CNc1nc(=S)[nH]c2sc3c(c12)CCCC3 | > 75 µM (inactive) | > 75 µM (inactive) | > 75 µM (inactive) | > 75 µM (inactive) | > 75 µM (inactive) | > 75 µM (inactive) | > 75 µM (inactive) | – | > 75 µM (inactive) | > 75 µM (inactive) | > 75 µM (inactive) | > 75 µM (inactive) | – | > 75 µM (inactive) | > 75 µM (inactive) | > 75 µM (inactive) | > 75 µM (inactive) | > 75 µM (inactive) | 67 µM (inactive)
Cc1ccc2c(c1C)CC1(Cc3c(C)ccc(C)c3C1=O)C2=O (centres undefined) | > 100 µM (inactive) | > 100 µM (inactive) | > 100 µM (inactive) | – | > 100 µM (inactive) | > 100 µM (inactive) | > 100 µM (inactive) | > 100 µM (inactive) | > 100 µM (inactive) | > 100 µM (inactive) | > 100 µM (inactive) | > 100 µM (inactive) | > 100 µM (inactive) | – | > 100 µM (inactive) | > 100 µM (inactive) | > 100 µM (inactive) | > 100 µM (inactive) | > 100 µM (inactive)
COc1cc(/C=C2/C(=O)N/C(=N\C(C)=O)N2C)ccc1OC(C)=O | – | 53.3 µM (inactive) | > 100 µM (inactive) | > 100 µM (inactive) | > 100 µM (inactive) | > 100 µM (inactive) | > 100 µM (inactive) | > 100 µM (inactive) | > 100 µM (inactive) | > 100 µM (inactive) | > 100 µM (inactive) | – | > 100 µM (inactive) | > 100 µM (inactive) | > 100 µM (inactive) | > 100 µM (inactive) | > 100 µM (inactive) | > 100 µM (inactive) | > 100 µM (inactive)
C=CCNC1=C2C[C@@H](C)C[C@@H](OC)[C@H](OC(=O)CCCCN)[C@H](C)/C=C(\C)[C@@H](OC(N)=O)[C@H](OC)/C=C\C=C(/C)C(=O)NC(=CC1=O)C2=O | 16.9 µM (inactive) | 11.7 µM (inactive) | 14.8 µM (inactive) | 3.22 µM (inactive) | 4.97 µM (inactive) | 11.3 µM (inactive) | 14.2 µM (inactive) | 6.31 µM (inactive) | 19 µM (inactive) | 3.77 µM (inactive) | – | 12.9 µM (inactive) | 11.9 µM (inactive) | 12.6 µM (inactive) | 6.18 µM (inactive) | 4.27 µM (inactive) | 5.51 µM (inactive) | 19.4 µM (inactive) | 19.5 µM (inactive)
CCOC(=O)c1sc2nc(SC)nc(Nc3ccc4c(c3)OCCO4)c2c1N | 4.69 µM (inactive) | > 100 µM (inactive) | 6.34 µM (inactive) | 13.5 µM (inactive) | 44.6 µM (inactive) | 17.6 µM (inactive) | 11.1 µM (inactive) | – | 16 µM (inactive) | 10.5 µM (inactive) | 3.33 µM (inactive) | 11.9 µM (inactive) | 10 µM (inactive) | 30.6 µM (inactive) | 19.5 µM (inactive) | 21 µM (inactive) | – | 5.12 µM (inactive) | 15 µM (inactive)
C=CCOc1ccc(C2(c3ccc(OCC=C)cc3)C(=O)Nc3ccccc32)cc1 | > 10 µM (inactive) | > 10 µM (inactive) | 8.13 µM (inactive) | > 10 µM (inactive) | > 10 µM (inactive) | > 10 µM (inactive) | > 10 µM (inactive) | > 10 µM (inactive) | 9.31 µM (inactive) | 8.57 µM (inactive) | > 10 µM (inactive) | > 10 µM (inactive) | > 10 µM (inactive) | > 10 µM (inactive) | > 10 µM (inactive) | > 10 µM (inactive) | > 10 µM (inactive) | > 10 µM (inactive) | –
COC(=O)/C(=C(/C)c1ccco1)P(=O)(OC)OC | > 100 µM (inactive) | – | > 100 µM (inactive) | > 100 µM (inactive) | > 100 µM (inactive) | > 100 µM (inactive) | > 100 µM (inactive) | > 100 µM (inactive) | > 100 µM (inactive) | > 100 µM (inactive) | > 100 µM (inactive) | > 100 µM (inactive) | > 100 µM (inactive) | > 100 µM (inactive) | > 100 µM (inactive) | > 100 µM (inactive) | > 100 µM (inactive) | > 100 µM (inactive) | 0.01 µM (active)
[N-]=[N+]=Nc1c(-c2ccccc2)c(=O)n(-c2ccccc2)c2ccccc12 | 13.2 µM (inactive) | > 100 µM (inactive) | 24.6 µM (inactive) | 52 µM (inactive) | 67.6 µM (inactive) | – | 74.3 µM (inactive) | > 100 µM (inactive) | > 100 µM (inactive) | 54.1 µM (inactive) | 91.4 µM (inactive) | 77.8 µM (inactive) | > 100 µM (inactive) | 63.2 µM (inactive) | > 100 µM (inactive) | 41.7 µM (inactive) | 36.4 µM (inactive) | 90.2 µM (inactive) | 37.3 µM (inactive)
C=C1C(=O)OC2C3C(=C)[C@@H](OC(C)=O)CC3C(C)=CC(OC(=O)C(C)(OC(C)=O)C(C)OC(C)=O)[C@@H]12 (some centres undefined) | 21.7 µM (inactive) | 2.52 µM (inactive) | 23.3 µM (inactive) | 13.2 µM (inactive) | 16.8 µM (inactive) | 85.7 µM (inactive) | 18.5 µM (inactive) | 83.2 µM (inactive) | 18.5 µM (inactive) | 11.5 µM (inactive) | 23.8 µM (inactive) | – | 24.3 µM (inactive) | 13.4 µM (inactive) | 9.33 µM (inactive) | 14.4 µM (inactive) | 18.9 µM (inactive) | 30.1 µM (inactive) | 16.4 µM (inactive)
CSc1ccc2c(cc1=O)[C@@H](NC(=O)c1ccc([N+](=O)[O-])cc1)CCc1cc(O)c(O)c(O)c1-2 | 59 µM (inactive) | 11.7 µM (inactive) | > 100 µM (inactive) | 15.7 µM (inactive) | 17.7 µM (inactive) | 18.4 µM (inactive) | 28.2 µM (inactive) | > 100 µM (inactive) | 60.3 µM (inactive) | 31.8 µM (inactive) | 46.5 µM (inactive) | > 100 µM (inactive) | 28.1 µM (inactive) | 34.8 µM (inactive) | 43.6 µM (inactive) | 17.8 µM (inactive) | > 100 µM (inactive) | 32.1 µM (inactive) | 78.3 µM (inactive)
O=c1c(C(c2ccc(C(c3c(O)oc4cc(O)ccc4c3=O)c3c(O)oc4cc(O)ccc4c3=O)cc2)c2c(O)oc3cc(O)ccc3c2=O)c(O)oc2cc(O)ccc12 | > 100 µM (inactive) | 44.6 µM (inactive) | > 100 µM (inactive) | > 100 µM (inactive) | – | – | > 100 µM (inactive) | > 100 µM (inactive) | > 100 µM (inactive) | > 100 µM (inactive) | > 100 µM (inactive) | > 100 µM (inactive) | > 100 µM (inactive) | > 100 µM (inactive) | > 100 µM (inactive) | > 100 µM (inactive) | > 100 µM (inactive) | > 100 µM (inactive) | > 100 µM (inactive)
[O-][Cl+3]([O-])([O-])[O-].[O-][Cl+3]([O-])([O-])[O-].c1ccn2c(N3CCCC3)[n+]3c4ccccc4n4c(N5CCCC5)[n+]5ccccc5c4c3c2c1 | 15.3 µM (inactive) | > 100 µM (inactive) | 43.5 µM (inactive) | 87.5 µM (inactive) | 40.3 µM (inactive) | 29.4 µM (inactive) | > 100 µM (inactive) | – | 30.9 µM (inactive) | 67.1 µM (inactive) | 0.745 µM (active) | > 100 µM (inactive) | > 100 µM (inactive) | > 100 µM (inactive) | > 100 µM (inactive) | – | 18.7 µM (inactive) | 25.4 µM (inactive) | –
CCCCCC(=O)N[C@H](C(=O)N[C@H](C(=O)N(C)[C@@H](CC(C)C)C(=O)N1CCC[C@H]1C(=O)N1CCC[C@H]1C(=O)O[C@H](C(=O)N1C(=O)C=C(OC)[C@@H]1Cc1ccccc1)C(C)C)C(C)C)C(C)C (Hexanoyl-VV[NMeL]PP-X26) | > 41.9 µM (inactive) | 1.46 µM (inactive) | 70.8 µM (inactive) | > 100 µM (inactive) | > 74.3 µM (inactive) | – | > 64.9 µM (inactive) | > 100 µM (inactive) | 83.4 µM (inactive) | 25.9 µM (inactive) | > 100 µM (inactive) | 51.5 µM (inactive) | 18.1 µM (inactive) | > 100 µM (inactive) | > 100 µM (inactive) | > 100 µM (inactive) | 19.5 µM (inactive) | > 100 µM (inactive) | –
